Laboratory results reported in patent US9012428B2, “Uracyl spirooxetane nucleoside phosphoramidates” (Janssen Products, LP, priority 2010, dated 2015).

Assays:
[1] = system: HIV; details: literature report; cited from earlier work
[2] = Cytotoxicity in Huh-7 cells; type: cell-based; details: human
Description: (§1) The in vitro antiviral activity against HCV of the compound of formula I was tested in a cellular HCV replicon system based on Lohmann et al. (1999) Science 285:110-113, with the further modifications described by Krieger et al. (2001) Journal of Virology 75: 4614-4624 (incorporated herein by reference), which is further exemplified in the examples section. This model, while not a complete infection model for HCV, is widely accepted as the most robust and efficient model of autonomous HCV RNA replication currently available. It will be appreciated that it is important to distinguish between compounds that specifically interfere with HCV functions from those that exert cytotoxic or cytostatic effects in the HCV replicon model, and as a consequence cause a decrease in HCV RNA or linked reporter enzyme concentration. Assays are known in the field for the evaluation of cellular cytotoxicity based for example on the activity of mitochondrial enzymes using fluorogenic redox dyes such as resazurin. Furthermore, cellular counter screens exist for the evaluation of non-selective inhibition of linked reporter gene activity, such as firefly luciferase. […]

[3] = system: HCV type 1b replicon; experiment: HCV replicon assay (Huh-Luc, luciferase readout); type: cell-based; details: Hepatitis C virus, 72 h; Huh-Luc replicon cells, three days incubation, luciferase activity
Description: as §1, with “concentration.” for “concentration. Assays are known in the field for the evaluation of cellular cytotoxicity based for example on the activity of mitochondrial enzymes using fluorogenic redox dyes such as resazurin. Furthermore, cellular counter screens exist for the evaluation of non-selective inhibition of linked reporter gene activity, such as firefly luciferase.”
The replicon cells were plated in 384-well plates in the presence of the test and control compounds which were added in various concentrations. Following an incubation of three days, HCV replication was measured by assaying luciferase activity (using standard luciferase assay substrates and reagents and a Perkin Elmer ViewLux™ ultraHTS microplate imager). […] The inhibitory activity of the compound on luciferase activity was monitored on the Huh-Luc cells, enabling a dose-response curve for the test compound. […]

Row | SMILES | activity against HIV [1] | CC50 [2] | EC50 [3]
1 | Cc1cn([C@@H]2O[C@H](CO)[C@@H](O)[C@]23CCO3)c(=O)[nH]c1=O [1-(2-O,2-C-ethano-β-D-ribofuranosyl)thymine] | no activity was found | – | –
2 | O=c1ccn([C@@H]2O[C@H](CO)[C@@H](O)[C@]23CCO3)c(=O)[nH]1 [1-(2-O,2-C-ethano-β-D-ribofuranosyl)uracil] | no activity was found | – | –
3 | CCCCOC(=O)[C@H](C)N[P@](=O)(OC[C@H]1O[C@@H](n2ccc(=O)[nH]c2=O)[C@@]2(CCO2)[C@@H]1O)Oc1ccccc1 [Compound P1, butyl N—[(S)-{[(4R,5R,7R,8R)-5-(2,4-dioxo-3,4-dihydro-pyrimidin-1(2H)-yl)-8-hydroxy-1,6-dioxaspiro[3.4]oct-7-yl]methoxy}(phenoxy)-phosphoryl]-L-alaninate] | – | > 98 µM | 2.51 µM
